Measured values as given in patent publication US20190275145A1, “PARTICULATE VACCINE FORMULATIONS” (PDS BIOTECHNOLOGY CORPORATION, priority 2011, published 2019).

Tested on: HPV-positive tumors (TC-1 cells)
Assay: Tumor regression efficacy of R-DOTAP/S-DOTAP with HPV-16 E7 peptide antigen (encapsulated or micelles) in TC-1 tumor-bearing mice
Conditions: mouse, in vivo
Method: Subcutaneous HPV-positive tumors were established in mice by injecting […] TC-1 cells into the flank of each mouse on day 0. On day 6, the mice received a single subcutaneous injection of the formulations in a 0.10 ml injection.
The anti-tumor efficacy of vaccine formulations can be evaluated by evaluating tumor regression. In this example, the vaccine formulation comprises cationic lipid nanoparticles and a peptide antigen assembly in a tubular structure. Furthermore, the exemplary cationic lipid in the present example is R-DOTAP and the exemplary antigen assembly is an HPV-16 E7 micelle.
In this example, H-2Db restricted CTL epitope (amino acid 49-57, RAHYNIVTF [SEQ. ID. NO. 1]) derived from HPV 16 E7 protein was extended to amino acids 43-57, GQAEPDRAHYNIVTF, [SEQ. ID. No. 2]. SEQ. ID. No. 2 was then further extended with the amino acids KSS, and a hydrophobic palmitoyl chain was attached to the elongated peptide.
However, formulating the peptide antigen sequence into a particulate structure comprised only of SEQ. ID. No. 3 allows higher doses of the antigen to be delivered compared to delivery via a cationic lipid adjuvant delivery system. Thus, an effective means of overcoming the weak antigenicity of the peptide can be obtained.
To evaluate this approach, HPV-positive tumors were established as described in Example 3 above. […]

Sequence | antigenicity when formulated and evaluated
GQAEPDRAHYNIVTF (listed as Homo sapiens) [SEQ. ID. No. 2, HPV 16 E7 amino acids 43-57] | weak antigen
RAHYNIVTF (listed as Homo sapiens) [SEQ. ID. No. 1] | weak antigen
